Patent US10632192B2, “Pyrimidine compounds and their use as vaccine adjuvants” (Sumitomo Dainippon Pharma Co., Ltd., priority 2015, dated 2020)

Experiments:
spleen cells [1] = test: OVA-specific multifunctional CD4-positive T lymphocytes in spleen cells of immunized mice (flow cytometry); format: in vivo, mouse; conditions: spleen cells of mice of Test Example 1, cultured overnight with OVA and Brefeldin A; IFN-γ, IL-2, TNF-α staining; vs negative control group; FIG. 3
Protocol: (§1) For the first immunization, an equal volume mixture (100 μL/mouse) of ovalbumin (OVA) (1 mg/mL) and a compound of the above Examples (0.1 mg/mL) was administered intramuscularly to gastrocnemius muscle of C57BL/6 mouse. Two weeks later, an equal amount of the same mixture was administered intramuscularly to the gastrocnemius muscle for booster immunization. One week after the booster immunization, cardiac blood was collected under isoflurane inhalation anesthesia, and plasma was collected by centrifugation. OVA-specific IgG value in plasma was measured by ELISA using mouse anti-ovalbumin IgG ELISA kit (Alpha Diagnostic) (See FIG. 1).
The spleen cells were prepared from the mouse of Test Example 1. The cells were added with OVA and Brefeldin A (eBioscience) and cultured overnight. The cultured cells were harvested, stained with APC-labeled anti-mouse CD3e antibody, FITC-labeled anti-mouse CD4 antibody and Fixable Viability Dye Fluor® 450 (eBioscience), and fixed in Fixation/Permeabilization buffer (eBioscience). After treatment in Permeabilization buffer (eBioscience), the cells were stained with antibody cocktail PerCP-Cy5.5-labeled anti-IFN-γ antibody, PE-Cy7-labeled anti-IL-2 antibody, and PE-labeled TNF-α (eBioscience). Data acquisition and analysis were performed using FACS Cant II (BD Biosciences) and FLOWJO software (TreeStar).

spleen cells [2] = test: MHC-restricted OVA-specific CD8-positive T lymphocytes in spleen cells of immunized mice (tetramer staining); format: in vivo, mouse; conditions: spleen cells of mice of Test Example 1, H-2Kb OVA Tetramer-SINFEKL; vs negative control group; FIG. 4
Protocol: as §1
The spleen cells were also stained with eFluor 450-labeled anti-mouse CD3e antibody, Alexa Fluor® 647-labeled anti-mouse CD8 antibody, PE-labeled H-2Kb OVA Tetramer-SINFEKL (MBL) and Flexable Viability Dye eFluor 520 (eBioscience). Data acquisition and analysis were performed using FACS Cant II (BD Biosciences) and FLOWJO software (TreeStar).

C57BL/6 mouse [3] = test: OVA-specific IgG1 and IgG2c in immunized mouse plasma (ELISA); format: in vivo; conditions: intramuscular OVA + compound, prime and booster, vs negative control group, FIG. 2
Protocol: as §1
Also, the OVA-specific IgG1 and IgG2c values in the immunized mouse plasma were determined by ELISA method. Specifically, OVA solution (SIGMA) was added to a 96-well plate, followed by blocking with 1% skim milk (Wako Pure Chemical Industries, Ltd.). A plasma sample, which was diluted with phosphate buffer, and then a secondary antibody (goat anti-mouse IgG1 (Jackson) or IgG2c (Southern Bio)) were added. SureBlue™ TMB microwell peroxidase substrate (KPL) was added, and the product of the enzyme reaction was measured by microplate reader (See FIG. 2).

spleen cells [4] = test: CD8-positive effector memory T lymphocytes in spleen cells of immunized mice (flow cytometry); format: in vivo, mouse; conditions: spleen cells of mice of Test Example 1, CD44/CD62L staining; vs negative control group; FIG. 5
Protocol: as §1
The spleen cells were further incubated with antibody cocktail eFluor450-labeled anti-mouse CD3e antibody, Alexa Fluor647-labeled anti-mouse CD8 antibody, PE-Cy7-labeled anti-mouse CD44 antibody, PerCP-Cy5.5-labeled anti-mouse CD62L antibody and Fixable Viability Dye520 (eBioscience). Data acquisition and analysis were performed using FACS Cant II (BD Biosciences) and FLOWJO software (TreeStar).

C57BL/6 mouse [5] = test: OVA-specific IgG in plasma of mice immunized with OVA plus compound (ELISA); format: in vivo; conditions: intramuscular, equal volume mixture (100 μL/mouse) of OVA 1 mg/mL and compound 0.1 mg/mL, booster two weeks later, plasma one week after booster, vs negative control group, FIG. 1
Protocol: as §1

| Compound | proportion of OVA-specific multifunctional CD4-positive T lymphocytes (spleen cells [1]) | proportion of MHC-restricted OVA-specific CD8-positive T lymphocytes (spleen cells [2]) | ratio of OVA-specific IgG2c to IgG1 in plasma (C57BL/6 mouse [3]) | proportion of CD8-positive effector memory T lymphocytes (spleen cells [4]) | OVA-specific IgG production in plasma (C57BL/6 mouse [5]) |
| --- | --- | --- | --- | --- | --- |
| CCC[C@@H](CCO)Nc1nc(N)nc(C)c1Cc1ccc(CN(C)CCNC(=O)CC/C(C)=C/CC/C(C)=C/CC/C(C)=C/CC/C=C(\C)CC/C=C(\C)CCC=C(C)C)cc1 [Example 1, (4E,8E,12E,16E,20E)-N-{2-[{4-[(2-amino-4-{[(3S)-1-hydroxyhexan-3-yl]amino}-6-methylpyrimidin-5-yl)methyl]benzyl}(methyl)amino]ethyl}-4,8,12,17,21,25-hexamethylhexacosa-4,8,12,16,20,24-hexaenamide] | significantly increased | significantly increased | significantly increased | significantly increased | induced significant OVA-specific IgG production |
| CCC[C@@H](CO)Nc1nc(N)nc(C)c1Cc1ccc(C(=O)NCCNC(=O)CC/C(C)=C/CC/C(C)=C/CC/C(C)=C/CC/C=C(\C)CC/C=C(\C)CCC=C(C)C)cc1OC [Example 4, 4-[(2-amino-4-{[(25)-1-hydroxypentan-2-yl]amino}-6-methylpyrimidin-5-yl)methyl]-N-(2-{[(4E,8E,12E,16E,20E)-4,8,12,17,21,25-hexamethylhexacosa-4,8,12,16,20,24-hexaenoyl]amino}ethyl)-3-methoxybenzamide] | significantly increased | significantly increased | significantly increased | significantly increased | induced significant OVA-specific IgG production |
